Results as given in ChEMBL document CHEMBL1126968, “Synthesis and biological evaluation of some 25,26-epoxy-1,24-dihydroxyvitamin D3 analogues” (1993).

Each compound was assayed on HL-60 (assay: Percent activity for its capability to induce differentiation of human promyeloid leukemia HL-60 cells).
Type: functional
Set-up: concentration or dose not given beside the values

Row | Compound | Activity [%]
1 | C=C1/C(=C\C=C2/CCC[C@]3(C)[C@@H]([C@H](C)CC[C@@H](O)[C@]4(C)CO4)CC[C@@H]23)C[C@@H](O)C[C@@H]1O | 33
2 | C=C1/C(=C\C=C2/CCC[C@]3(C)[C@@H]([C@H](C)/C=C/[C@H](O)[C@]4(C)CO4)CC[C@@H]23)C[C@@H](O)C[C@@H]1O | 30
3 | C=C1/C(=C\C=C2/CCC[C@]3(C)[C@@H]([C@H](C)CC[C@H](O)[C@]4(C)CO4)CC[C@@H]23)C[C@@H](O)C[C@@H]1O | 7
4 | C=C1/C(=C\C=C2/CCC[C@]3(C)[C@@H]([C@H](C)CC[C@H](O)[C@@]4(C)CO4)CC[C@@H]23)C[C@@H](O)C[C@@H]1O | 44
5 | C=C1/C(=C\C=C2/CCC[C@]3(C)[C@@H]([C@H](C)/C=C/[C@@H](O)[C@@]4(C)CO4)CC[C@@H]23)C[C@@H](O)C[C@@H]1O | 30
6 | C=C1/C(=C\C=C2/CCC[C@]3(C)[C@@H]([C@H](C)CC[C@@H](O)[C@@]4(C)CO4)CC[C@@H]23)C[C@@H](O)C[C@@H]1O | 12
7 | C=C1/C(=C\C=C2/CCC[C@]3(C)[C@@H]([C@H](C)CCCC4(C)CO4)CC[C@@H]23)C[C@@H](O)C[C@@H]1O (some centres undefined) | 37

Each compound was assayed against T1, Vitamin D3 receptor (Sus scrofa) (UniProt A3RGC1) (assay: Inhibition of [3H]1-alpha,25-dihydroxy-vitamin D3 binding to porcine intestinal mucosal vitamin D receptor).
T1 sequence (whole entry): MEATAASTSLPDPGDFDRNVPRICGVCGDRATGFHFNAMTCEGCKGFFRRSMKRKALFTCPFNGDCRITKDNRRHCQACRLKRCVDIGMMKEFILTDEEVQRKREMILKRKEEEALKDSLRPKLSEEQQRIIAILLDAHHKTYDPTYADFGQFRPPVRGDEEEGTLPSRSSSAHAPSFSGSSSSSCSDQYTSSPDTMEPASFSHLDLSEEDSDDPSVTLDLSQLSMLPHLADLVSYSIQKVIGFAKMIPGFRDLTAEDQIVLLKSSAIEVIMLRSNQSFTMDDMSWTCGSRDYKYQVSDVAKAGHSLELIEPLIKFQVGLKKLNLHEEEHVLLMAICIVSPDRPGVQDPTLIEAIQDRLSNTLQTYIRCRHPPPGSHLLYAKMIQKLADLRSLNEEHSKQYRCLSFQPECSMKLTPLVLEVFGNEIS

Row | Receptor binding | Compound
8 | 9 | C=C1/C(=C\C=C2/CCC[C@]3(C)[C@@H]([C@H](C)CC[C@@H](O)[C@]4(C)CO4)CC[C@@H]23)C[C@@H](O)C[C@@H]1O
9 | 8 | C=C1/C(=C\C=C2/CCC[C@]3(C)[C@@H]([C@H](C)/C=C/[C@H](O)[C@]4(C)CO4)CC[C@@H]23)C[C@@H](O)C[C@@H]1O
10 | 5 | C=C1/C(=C\C=C2/CCC[C@]3(C)[C@@H]([C@H](C)CC[C@H](O)[C@]4(C)CO4)CC[C@@H]23)C[C@@H](O)C[C@@H]1O
11 | 1 | C=C1/C(=C\C=C2/CCC[C@]3(C)[C@@H]([C@H](C)CC[C@H](O)[C@@]4(C)CO4)CC[C@@H]23)C[C@@H](O)C[C@@H]1O
12 | 8 | C=C1/C(=C\C=C2/CCC[C@]3(C)[C@@H]([C@H](C)/C=C/[C@@H](O)[C@@]4(C)CO4)CC[C@@H]23)C[C@@H](O)C[C@@H]1O
13 | 20 | C=C1/C(=C\C=C2/CCC[C@]3(C)[C@@H]([C@H](C)CC[C@@H](O)[C@@]4(C)CO4)CC[C@@H]23)C[C@@H](O)C[C@@H]1O
14 | 27 | C=C1/C(=C\C=C2/CCC[C@]3(C)[C@@H]([C@H](C)CCCC4(C)CO4)CC[C@@H]23)C[C@@H](O)C[C@@H]1O (some centres undefined)
